Values quoted from earlier work as cited in patent US20110256072A1, “FOOD AND COMPOSITION EACH COMPRISING PHOSPHORYLATED SACCHARIDE, POLYPHENOL AND FLUORIDE” (EZAKI GLICO CO., LTD., priority 2008, published 2011).
“And” between values parts separate entries of the source, which are not always exact repeats. Equal entries are not always repeated. Where two headings read alike, the source gives them in different places.

System: dental caries

[F-].[Na+] [2% Sodium fluoride solution, Sodium fluoride]
Inhibition rate (in vivo): 20-40%

[F-].[Na+] [NaF: 0.05% every day method, NaF]
Inhibition rate (Fluoride mouth washing method, 226 ppm, Permanent tooth): 20-50%

[F][Sn][F] [SnF2: 8% Solution, SnF2]
Inhibition rate (Local application to dental surface, 19,400 ppm, Permanent tooth): 20-50%

[F-].[Na+] [Sodium fluoride]
Inhibition rate (in vivo): 25-50% and 20-40% and ~30%
